# Measured values from the supplement of paper PMC11208160.
# Experiment: recombinant barcode read abundance after kanamycin selection (control-corrected) (log10(CPM+1)); higher = more efficient recombination; sequences stand for … in AGTGCAGAGAAAATCGGCCAGTTTTCTCTGCCTGCAGTCCGCATGCCGT…AGATTTATGCAGCGGACTGCCTTTCTCCCAAAGTGATAAACCGGACAGTATCATGGACCGGTTTTCCCGGTAATCCGTATTTGCAAGGTTGGTTTCACT; site = the 11-nt target
# Method in brief: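 Pooled oligos, each joining a target to an IS621 bridge RNA target-binding loop, were cloned and co-electroporated with a donor plasmid into E. coli. Selective plates carried chloramphenicol/ampicillin/kanamycin and 0.1 mM IPTG, while chloramphenicol/ampicillin LB agar served as control, with two replicates of each. Recombination efficiency rests on averaged, control-corrected counts per million of barcodes at recombinant junctions, shown as log10(CPM+1).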
# 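Also: IS621 recombinase and bridge RNA in Escherichia coli cells.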
row,Sequence,recombinant barcode read abundance (log10)
1,GCCGAGACTTGGGTTCTAACCTGTTGCCT (site GCCGAAACTAG),0.48
2,GCCGAGACTTGGGTTCTAACCTGTTGCCT (site GCCGACACTAG),0.0133
3,GCCGAGACTTGGGTTCTAACCTGTTGCCT (site GCCGAGACTAG),0.34
4,GCCGAGACTTGGGTTCTAACCTGTTGCCT (site GCCGATACTAG),0.121
5,GCCGAGTCTTGGGTTCTAACCTGTTGCTT (site GCCGAGTCTAA),0.688
6,GCCGAGTCTTGGGTTCTAACCTGTTGCTT (site GCCGAGTCTCA),0.0689
7,GCCGAGTCTTGGGTTCTAACCTGTTGCTT (site GCCGAGTCTGA),0.0417
8,GCCGAGTCTTGGGTTCTAACCTGTTGCTT (site GCCGAGTCTTA),0.6
9,GCCGATACTTGGGTTCTAACCTGTTGCCA (site AGTCTGCCTCA),0.134
10,GCCGATACTTGGGTTCTAACCTGTTGCCA (site GCCGATACTTG),0
11,GCCGATTCTTGGGTTCTAACCTGTTGCCT (site ACCGATTCTAT),0.0154
12,GCCGATTCTTGGGTTCTAACCTGTTGCCT (site GCCGATTCTAG),0.0394
13,GCCGCGACTTGGGTTCTAACCTGTTGCCT (site GCAGCGACTAG),0.207
14,GCCGCGACTTGGGTTCTAACCTGTTGCCT (site GCCGCGACTAG),0.236
15,GCCGCGACTTGGGTTCTAACCTGTTGCCT (site GCGGCGACTAG),0.204
16,GCCGCGACTTGGGTTCTAACCTGTTGCCT (site GCTGCGACTAG),0.262
17,GCCTACCCTTGGGTTCTAACCTGTTGCGG (site GCCGACCCTCG),0.0988
18,GCCTACCCTTGGGTTCTAACCTGTTGCGG (site GCCTACCCTCC),0.483
19,GCCTATTCTTGGGTTCTAACCTGTTGCGT (site GCCTATTCTAC),0.4
20,GCCTATTCTTGGGTTCTAACCTGTTGCGT (site TCCGATTCTAC),0.0523
21,GCCTGTTCTTGGGTTCTAACCTGTTGCCT (site GACTGTTCTAG),0.238
22,GCCTGTTCTTGGGTTCTAACCTGTTGCCT (site GCCTGTTCTAG),0.462
23,GCCTGTTCTTGGGTTCTAACCTGTTGCCT (site GGCTGTTCTAG),0.0257
24,GCCTGTTCTTGGGTTCTAACCTGTTGCCT (site GTCTGTTCTAG),0.137
25,GCGAACACTTGGGTTCTAACCTGTTGCTT (site GCGAACACTAA),1.9
26,GCGAACACTTGGGTTCTAACCTGTTGCTT (site GCGAAGTCTAA),0.194

row,Sequence,recombinant barcode read abundance (log10)
1,GCGAGCCCTTGGGTTCTAACCTGTTGCGT (site GCGAGCCCTAC),2.52
2,GCGAGCCCTTGGGTTCTAACCTGTTGCGT (site GCTAGCCCTCC),0.0583
3,GCGCCCTCTTGGGTTCTAACCTGTTGCCG (site CAATTACCTAA),0.194
4,GCGCCCTCTTGGGTTCTAACCTGTTGCCG (site GCGCCCTCTCG),0.606
5,GCGCCTCCTTGGGTTCTAACCTGTTGCAT (site GCGACTCCTAT),0.144
6,GCGCCTCCTTGGGTTCTAACCTGTTGCAT (site GCGCCTCCTAT),0.504
7,GCGCCTCCTTGGGTTCTAACCTGTTGCAT (site GCGGCTCCTAT),0
8,GCGCCTCCTTGGGTTCTAACCTGTTGCAT (site GCGTCTCCTAT),0.0165
9,GCGCGCCCTTGGGTTCTAACCTGTTGCGG (site GCGCGCCCTCA),0.101
10,GCGCGCCCTTGGGTTCTAACCTGTTGCGG (site GCGCGCCCTCC),1.63
11,GCGCGTGCTTGGGTTCTAACCTGTTGCCT (site GCACGTGCTAG),1.11
12,GCGCGTGCTTGGGTTCTAACCTGTTGCCT (site GCCCGTGCTAG),0.539
13,GCGCGTGCTTGGGTTCTAACCTGTTGCCT (site GCGCGTGCTAG),0.584
14,GCGCGTGCTTGGGTTCTAACCTGTTGCCT (site GCTCGTGCTAG),0.11
15,GCGCTAGCTTGGGTTCTAACCTGTTGCCT (site ACGCTAGCTAG),0.125
16,GCGCTAGCTTGGGTTCTAACCTGTTGCCT (site CCGCTAGCTAG),0.0832
17,GCGCTAGCTTGGGTTCTAACCTGTTGCCT (site GCGCTAGCTAG),0.205
18,GCGCTAGCTTGGGTTCTAACCTGTTGCCT (site TCGCTAGCTAG),0.111
19,GCGCTTACTTGGGTTCTAACCTGTTGCCT (site GAGCTTACTAG),0.191
20,GCGCTTACTTGGGTTCTAACCTGTTGCCT (site GCGCTTACTAG),0.665
21,GCGCTTACTTGGGTTCTAACCTGTTGCCT (site GGGCTTACTAG),0.0205
22,GCGCTTACTTGGGTTCTAACCTGTTGCCT (site GTGCTTACTAG),0.0591
23,GCGGAAGCTTGGGTTCTAACCTGTTGCCT (site GAGGAAGCTAG),0.192
24,GCGGAAGCTTGGGTTCTAACCTGTTGCCT (site GCGGAAGCTAG),0.312
25,GCGGAAGCTTGGGTTCTAACCTGTTGCCT (site GGGGAAGCTAG),0.469
26,GCGGAAGCTTGGGTTCTAACCTGTTGCCT (site GTGGAAGCTAG),0.181

row,Sequence,recombinant barcode read abundance (log10)
1,GCGGGGTCTTGGGTTCTAACCTGTTGCCT (site ACGGGGTCTAG),0.786
2,GCGGGGTCTTGGGTTCTAACCTGTTGCCT (site CCGGGGTCTAG),0.627
3,GCGGGGTCTTGGGTTCTAACCTGTTGCCT (site GCGGGGTCTAG),1.2
4,GCGGGGTCTTGGGTTCTAACCTGTTGCCT (site TCGGGGTCTAG),0.231
5,GCGGTATCTTGGGTTCTAACCTGTTGCCT (site GCGGTATCTAG),1.21
6,GCGGTATCTTGGGTTCTAACCTGTTGCCT (site GGGGTATCTAG),0.105
7,GCGGTGACTTGGGTTCTAACCTGTTGCCT (site ACGGTGACTAG),0.942
8,GCGGTGACTTGGGTTCTAACCTGTTGCCT (site CCGGTGACTAG),0.172
9,GCGGTGACTTGGGTTCTAACCTGTTGCCT (site GCGGTGACTAG),1.48
10,GCGGTGACTTGGGTTCTAACCTGTTGCCT (site TCGGTGACTAG),0.074
11,GCGTACCCTTGGGTTCTAACCTGTTGCCT (site GAGTACCCTAG),0.404
12,GCGTACCCTTGGGTTCTAACCTGTTGCCT (site GCGTACCCTAG),1.41
13,GCGTACCCTTGGGTTCTAACCTGTTGCCT (site GGGTACCCTAG),0.0245
14,GCGTACCCTTGGGTTCTAACCTGTTGCCT (site GTGTACCCTAG),0.0662
15,GCGTACTCTTGGGTTCTAACCTGTTGCCT (site GCGGACTCTTG),0.0368
16,GCGTACTCTTGGGTTCTAACCTGTTGCCT (site GCGTACTCTAG),2.02
17,GCGTCCACTTGGGTTCTAACCTGTTGCCT (site GCATCCACTAG),0.398
18,GCGTCCACTTGGGTTCTAACCTGTTGCCT (site GCGTCCACTAG),0.0111
19,GCGTGTACTTGGGTTCTAACCTGTTGCCT (site GCGGGTACTAG),0.208
20,GCGTGTACTTGGGTTCTAACCTGTTGCCT (site GCGTGTACTAG),0.948
21,GCTAAGTCTTGGGTTCTAACCTGTTGCGT (site GCGGAGTCTAC),0.166
22,GCTAAGTCTTGGGTTCTAACCTGTTGCGT (site GCTAAGTCTAC),2.61
23,GCTAGTCCTTGGGTTCTAACCTGTTGCGT (site GCTAGTCCTAC),2.14
24,GCTAGTCCTTGGGTTCTAACCTGTTGCGT (site GCTAGTCCTCA),0.0737
25,GCTATGTCTTGGGTTCTAACCTGTTGCCT (site GCTATGTCTAG),1.42
